According to patent US10064885B2, “Metabolic gene, enzyme, and flux targets for cancer therapy” (Massachusetts Institute of Technology, priority 2010, dated 2018):

Columns and labels:
Assay type in all cases: cell-based, human
143B osteosarcoma = assay: Reductive carboxylation by [1-13C]glutamine labeling and GC/MS in 143B cells expressing shRNAs
Method: (§1) Cell Culture, Isotopic Labeling, and Hypoxia. All cell lines were cultured in Dulbecco's Modified Eagle Medium (DMEM; Mediatech) containing 10% fetal bovine serum (FBS; Invitrogen) and 100 U/ml penicillin/streptomycin (P/S; Mediatech) unless otherwise mentioned. Cell lines were obtained from ATCC unless otherwise noted. The VC3 glioma cell line was provided by Tim Lautenschlaeger (Ohio State University), MDA-MB-231 and HCT116 cell lines were provided by Ferdinando Chiaradonna (University of Milano-Bicocca), MRC5 cells were provided by Stephen Lippard (MIT), SN12C, ACHN, and 786-O cells were provided by Kevin Courtney and Lew Cantley (Harvard Medical School), and MCF10A cells were provided by Joan Brugge (Harvard Medical School), and Huh7 cells were provided by Mike Hemann (MIT). MCF10A cells were cultured in custom DMEM/F12 (Hyclone) containing 5% horse serum, 20 ng/ml EGF, 10 μg/ml insulin, 100 ng/ml cholera toxin, 0.5 mg/ml hydrocortisone, 100 U/ml penicillin/streptomycin, and labeled/unlabeled glucose and glutamine at 18 mM and 2.5 mM, respectively. […] The internal gas content was monitored using Fyrite gas analyzers (Bacharach) for CO2 and O2. […]
(§2) Metabolite Extraction and Gas Chromatography/Mass Spectrometry (GC/MS) Analysis. […] In some ISA experiments, cells were trypsinized, counted, and pelleted prior to lipid extraction as described above. […]

A549 cells [1] = assay: Reductive glutamine metabolism by isotopic labeling and GC/MS in A549 cells expressing shRNAs; settings: [U-13C5]glutamine, aspartate, malate, fumarate
Method: as §1, with “respectively. PRC3, WT8, pTV, and pTR cell lines were subcloned from the 786-O cell line as previously described (42, 43). For isotopic labeling experiments, cells were cultured in 6 well plates in glucose- and glutamine-free DMEM (Sigma) containing 10% dialyzed FBS (Invitrogen), 100 U/ml P/S, naturally labeled glucose or glutamine, and the appropriate tracer, including [U-^13C5]glutamine (Isotec), [5-^13C]glutamine (C/D/N Isotopes), [1-^13C]glutamine, [U-^13C6]glucose, [1,2-^13C2]glucose (all from Cambridge Isotope Labs). Steady state labeling of organic and amino acids was accomplished by culturing subconfluent cells in tracer medium for 24 hours.” for “respectively.”
as §2

A549 cells [2] = assay: 13C Metabolic Flux Analysis (MFA) of A549 cells expressing IDH1-targeting shRNAs, [U-13C5]glutamine tracer
Method: (§3) Cell Culture, Isotopic Labeling, and Hypoxia. All cell lines were cultured in Dulbecco's Modified Eagle Medium (DMEM; Mediatech) containing 10% fetal bovine serum (FBS; Invitrogen) and 100 U/ml penicillin/streptomycin (P/S; Mediatech) unless otherwise mentioned. Cell lines were obtained from ATCC unless otherwise noted. The VC3 glioma cell line was provided by Tim Lautenschlaeger (Ohio State University), MDA-MB-231 and HCT116 cell lines were provided by Ferdinando Chiaradonna (University of Milano-Bicocca), MRC5 cells were provided by Stephen Lippard (MIT), SN12C, ACHN, and 786-O cells were provided by Kevin Courtney and Lew Cantley (Harvard Medical School), and MCF10A cells were provided by Joan Brugge (Harvard Medical School), and Huh7 cells were provided by Mike Hemann (MIT). MCF10A cells were cultured in custom DMEM/F12 (Hyclone) containing 5% horse serum, 20 ng/ml EGF, 10 μg/ml insulin, 100 ng/ml cholera toxin, 0.5 mg/ml hydrocortisone, 100 U/ml penicillin/streptomycin, and labeled/unlabeled glucose and glutamine at 18 mM and 2.5 mM, respectively. PRC3, WT8, pTV, and pTR cell lines were subcloned from the 786-O cell line as previously described (42, 43). For isotopic labeling experiments, cells were cultured in 6 well plates in glucose- and glutamine-free DMEM (Sigma) containing 10% dialyzed FBS (Invitrogen), 100 U/ml P/S, naturally labeled glucose or glutamine, and the appropriate tracer, including [U-^13C5]glutamine (Isotec), [5-^13C]glutamine (C/D/N Isotopes), [1-^13C]glutamine, [U-^13C6]glucose, [1,2-^13C2]glucose (all from Cambridge Isotope Labs). Steady state labeling of organic and amino acids was accomplished by culturing subconfluent cells in tracer medium for 24 hours. Labeling of fatty acids for Isotopomer Spectral Analysis (USA) was conducted over 3-5 days of culture in an excess of tracer medium (3-4 ml/well in a 6 well plate) to prevent nutrient depletion. Hypoxic culture was conducted by feeding a custom mixture of 1% O2, 5% CO2, and 94% N2 to a standard incubator controlled at 5% CO2. HEPES (Mediatech) was added to the culture medium at 20 mM to maintain pH between normoxic and hypoxic cultures. The internal gas content was monitored using Fyrite gas analyzers (Bacharach) for CO2 and O2. O2 levels were confirmed at 1.5-2% during hypoxic culture.
Stable cell cultures with decreased IDH1 and IDH2 expression were generated via lentiviral-mediated shRNA expression. pLKO.1 lentiviral vectors targeting IDH1 with shRNA sequences of […] TT (IDH1a; TRCN0000027298; SEQ ID NO:1) and […] TT (IDH1b; TRCN0000027289; SEQ ID NO:2), IDH2 with shRNA sequence […] TT (TRCN0000027225; SEQ ID NO:3). For controls, either non-targeting control shRNA (SHC002; Sigma) or pLKO.1 scrambled control vector (44)(Addgene) were used. pLKO.1 vector targeting ARNT with shRNA sequence […] TT (TRCN0000003819; SEQ ID NO:4) was obtained from Open Biosystems.
HEK293T cells were co-transfected with pLKO.1 vectors and packaging plasmids to produce lentivirus. Filtered supernatants were used for infection, and cells were selected with puromycin (2 μg/ml) for at least two passages before initiating tracer and flux experiments.
Metabolite Extraction and Gas Chromatography/Mass Spectrometry (GC/MS) Analysis. At the conclusion of culture, cells were rinsed with 1 ml ice cold PBS and quenched with 0.4 ml ice cold methanol. An equal volume of water was added, and cells were collected in tubes by scraping with a pipette. One volume of ice cold chloroform was added to each tube, and the extracts were vortexed at 4° C. for 30 minutes. Samples were centrifuged at 14,000 g for 5 minutes at room temperature. For analysis of polar metabolites, the aqueous phase was transferred to a new tube for evaporation under airflow. For ISA experiments, the non-polar fraction was collected and evaporated under airflow. In some ISA experiments, cells were trypsinized, counted, and pelleted prior to lipid extraction as described above. […]

[3] = tested on: MDA-MB-231 breast carcinoma; assay: Reductive carboxylation by [1-13C]glutamine labeling and GC/MS in MDA-MB-231 cells expressing shRNAs
Method: as §3, with “Labeling of fatty acids for Isotopomer Spectral Analysis (USA) was conducted over 3-5 days of culture in an excess of tracer medium (3-4 ml/well in a 6 well plate) to prevent nutrient depletion. Hypoxic culture was conducted by feeding a custom mixture of 1% O2, 5% CO2, and 94% N2 to a standard incubator controlled at 5% CO2. HEPES (Mediatech) was added to the culture medium at 20 mM to maintain pH between normoxic and hypoxic cultures.” left out, “O2 levels were confirmed at 1.5-2% during hypoxic culture.” left out
as §2

HCT116 colon carcinoma = assay: Reductive carboxylation by [1-13C]glutamine labeling and GC/MS in HCT116 cells expressing shRNAs
Method: as §3, with “Labeling of fatty acids for Isotopomer Spectral Analysis (USA) was conducted over 3-5 days of culture in an excess of tracer medium (3-4 ml/well in a 6 well plate) to prevent nutrient depletion. Hypoxic culture was conducted by feeding a custom mixture of 1% O2, 5% CO2, and 94% N2 to a standard incubator controlled at 5% CO2. HEPES (Mediatech) was added to the culture medium at 20 mM to maintain pH between normoxic and hypoxic cultures.” left out, “O2 levels were confirmed at 1.5-2% during hypoxic culture.” left out
as §2

[4] = tested on: Hypoxia response element- (HRE-) driven reporter; assay: Hypoxia response element (HRE)-driven reporter in HCT116 cells expressing IDH1-targeting shRNAs; settings: normal culture, hypoxia, or 1 mM DMOG, 18 hours
Method: Luciferase Assays. Subconfluent cells in 6 well plates were co-transfected with 1 μg of a firefly luciferase vector and 50 ng Renilla luciferase vector (pRL-TK; Promega) using Fugene 6 reagent. The ODD-Luciferase and Luciferase vectors were obtained from Addgene and based off of the pcDNA3.1 vector (49). Hypoxia responsive element-luciferase (HRE-Luc) vectors were used as described (50). Approximately 24 hours after transfection, medium was changed and cells were placed under normoxia, hypoxia, or treated with 1 mM dimethyloxalylglycine (DMOG). After 18 hours of treatment, cells were lysed and luciferase activity was determined using the Dual Luciferase Reporter Assay system (Promega) according to the manufacturer's instructions.

[5] = Anaplerotic reactions, exchange flux
[6] = Anaplerotic reactions, net flux
[7] = Pentose Phosphate Pathway, exchange flux
[8] = Pentose Phosphate Pathway, net flux

CCGGGCTGCTTGCATTAAAGGTTTACTCGAGTAAACCTTTAATGCAAGCAGCTTT TT (CCGGGCTGCTTGCATTAAAGGTTTACTCGAGTAAACCTTTAATGCAAGCAGCTTTTT; expressed or natural sequence) [IDH1a, pLKO.1 lentiviral vector shRNA targeting IDH1]
reductive carboxylation flux (143B osteosarcoma): reduces reductive carboxylation flux | M3 mass isotopomers derived from [U-13C5]glutamine (reductive carboxylation) (A549 cells [1]): decrease in reductive carboxylation | Flux Pyr.m <−> Ala (A549 cells [2]; Amino acids, exchange flux): 0.00 fmol/cell*hr | Flux Gln −> Glu (A549 cells [2]; Amino acids, net flux): 22.97 fmol/cell*hr | Flux Gln.x −> Gln (A549 cells [2]; Amino acids, net flux): 23.47 fmol/cell*hr | Flux Glu −> Glu.x (A549 cells [2]; Amino acids, net flux): 18.56 fmol/cell*hr | Flux Pyr.m −> Ala (A549 cells [2]; Amino acids, net flux): 0.42 fmol/cell*hr | Flux Glu <−> Akg (A549 cells [2]; [5]): 499.30 fmol/cell*hr | Flux Mal <−> Pyr.m + CO2 (A549 cells [2]; [5]): 0.00 fmol/cell*hr | Flux Oac <−> Asp (A549 cells [2]; [5]): 0.01 fmol/cell*hr | Flux Glu −> Akg (A549 cells [2]; [6]): 3.90 fmol/cell*hr | Flux Mal −> Pyr.m + CO2 (A549 cells [2]; [6]): 5.44 fmol/cell*hr | Flux Oac −> Asp (A549 cells [2]; [6]): 0.61 fmol/cell*hr | Flux Pyr.m + CO2 −> Oac (A549 cells [2]; [6]): 2.14 fmol/cell*hr | Flux 0.6*Asp + 0.5*Glu + 0.42*Ala + 0.5*Gln −> Biomass (A549 cells [2]; Biomass, net flux): 1.01 fmol/cell*hr | Flux AcCoA.c −> Fatty acids (A549 cells [2]; Biomass, net flux): 10.65 fmol/cell*hr | Flux Cit −> AcCoA.c + Oac (A549 cells [2]; Biomass, net flux): 10.65 fmol/cell*hr | Flux P5P −> NTP (A549 cells [2]; Biomass, net flux): 0.50 fmol/cell*hr | Flux 0*Pyr.c −> Pyr.mnt (A549 cells [2]; Dilution/Mixing): 1.00 fmol/cell*hr | Flux 0*Pyr.m −> Pyr.mnt (A549 cells [2]; Dilution/Mixing): 0.00 fmol/cell*hr | Flux 0*Suc −> Suc.mnt (A549 cells [2]; Dilution/Mixing): 0.24 fmol/cell*hr | Flux Suc.d −> Suc.mnt (A549 cells [2]; Dilution/Mixing): 0.76 fmol/cell*hr | Flux Pyr.c <−> Pyr.m (A549 cells [2]; Dilution/Mixing, exchange flux): 82.77 fmol/cell*hr | Flux Pyr.c −> Pyr.m (A549 cells [2]; Dilution/Mixing, net flux): 11.79 fmol/cell*hr | Flux DHAP <−> GAP (A549 cells [2]; Glycolysis, exchange flux): 566.90 fmol/cell*hr | Flux G6P <−> F6P (A549 cells [2]; Glycolysis, exchange flux): 3.2E+04 fmol/cell*hr | Flux GAP <−> 3PG (A549 cells [2]; Glycolysis, exchange flux): 1.7E+08 fmol/cell*hr | Flux Pyr.c <−> Lac (A549 cells [2]; Glycolysis, exchange flux): 706.50 fmol/cell*hr | Flux 3PG −> Pyr.c (A549 cells [2]; Glycolysis, net flux): 186.40 fmol/cell*hr | Flux DHAP −> GAP (A549 cells [2]; Glycolysis, net flux): 91.96 fmol/cell*hr | Flux F6P −> DHAP + GAP (A549 cells [2]; Glycolysis, net flux): 91.96 fmol/cell*hr | Flux G6P −> F6P (A549 cells [2]; Glycolysis, net flux): 86.95 fmol/cell*hr | Flux GAP −> 3PG (A549 cells [2]; Glycolysis, net flux): 186.40 fmol/cell*hr | Flux Glc.x −> G6P (A549 cells [2]; Glycolysis, net flux): 94.96 fmol/cell*hr | Flux Lac −> Lac.x (A549 cells [2]; Glycolysis, net flux): 174.60 fmol/cell*hr | Flux Pyr.c −> Lac (A549 cells [2]; Glycolysis, net flux): 174.60 fmol/cell*hr | Flux P5P + E4P <−> F6P + GAP (A549 cells [2]; [7]): 1.76 fmol/cell*hr | Flux P5P + P5P <−> S7P + GAP (A549 cells [2]; [7]): 3.0E+04 fmol/cell*hr | Flux S7P + GAP <−> F6P + E4P (A549 cells [2]; [7]): 1.9E+05 fmol/cell*hr | Flux G6P −> P5P + CO2 (A549 cells [2]; [8]): 8.01 fmol/cell*hr | Flux P5P + E4P −> F6P + GAP (A549 cells [2]; [8]): 2.50 fmol/cell*hr | Flux P5P + P5P −> S7P + GAP (A549 cells [2]; [8]): 2.50 fmol/cell*hr | Flux S7P + GAP −> F6P + E4P (A549 cells [2]; [8]): 2.50 fmol/cell*hr | Flux Fum <−> Mal (A549 cells [2]; TCA Cycle, exchange flux): 1.1E+06 fmol/cell*hr | Flux Mal <−> Oac (A549 cells [2]; TCA Cycle, exchange flux): 98.66 fmol/cell*hr | Flux Suc <−> Fum (A549 cells [2]; TCA Cycle, exchange flux): 0.00 fmol/cell*hr | Flux Cit <−> Akg + CO2 (A549 cells [2]; TCA Cycle, exchange flux (reductive IDH flux)): 1.88 fmol/cell*hr | Flux AcCoA.m + Oac −> Cit (A549 cells [2]; TCA Cycle, net flux): 14.66 fmol/cell*hr | Flux Akg −> Suc + CO2 (A549 cells [2]; TCA Cycle, net flux): 7.91 fmol/cell*hr | Flux Fum −> Mal (A549 cells [2]; TCA Cycle, net flux): 7.91 fmol/cell*hr | Flux Mal −> Oac (A549 cells [2]; TCA Cycle, net flux): 2.48 fmol/cell*hr | Flux Pyr.m −> AcCoA.m + CO2 (A549 cells [2]; TCA Cycle, net flux): 14.66 fmol/cell*hr | Flux Suc −> Fum (A549 cells [2]; TCA Cycle, net flux): 7.91 fmol/cell*hr | Flux Cit −> Akg + CO2 (A549 cells [2]; TCA Cycle, net flux (IDH)): 4.01 fmol/cell*hr | reductive carboxylation flux (M1 label from [1-13C]glutamine) [3]: reduces reductive carboxylation flux | reductive carboxylation flux (M1 label from [1-13C]glutamine) (HCT116 colon carcinoma): reduces reductive carboxylation flux | HRE-driven reporter levels (hypoxia signaling) [4]: does not increase hypoxia signaling and stabilization
